ChEMBL document CHEMBL1132318, “Hydroxylated decahydroquinolines as ligands for the vesicular acetylcholine transporter: synthesis and biological evaluation” (J Med Chem, 1999)

Legend:
[1] = Displacement of [3H]vesamicol from Vesicular Acetylcholine Transporter (VAChT)
[2] = Binding affinity against Sigma opioid receptor type 1 in guinea pig brain membranes using [3H](+)-pentazocine as radioligand

Structure (SMILES)	Ki [1] [nM]	Ki [2] [nM]
O[C@@H]1CCN(Cc2cccc(I)c2)C[C@H]1N1CCC(c2ccccc2)CC1 (racemic)	0.13	
O[C@@H]1CCCC[C@H]1N1CCC(c2ccccc2)CC1 [VESAMICOL]		26
